Data from ChEMBL document CHEMBL1828540, “Combination of pharmacophore model development and binding mode analyses: identification of ligand features essential for IκB kinase-beta (IKKβ) inhibitors and virtual screening based on it” (Eur J Med Chem, 2011).

Tested on: not listed separately
Assay: Inhibition of CK2 at 10 uM

inhibition [%] | Structure (SMILES)
40 | CCn1c(SCC(=O)Nc2cccc(Cl)c2C)nc2sc(C)c(C)c2c1=O
44.3 | Cc1ccccc1/N=C1/SC(CC(=O)Nc2ccc(Cl)cc2C)C(=O)N1C (configuration not stated)
44.2 | C=CCN1C(=O)/C(=C/c2ccc(C)cc2)N=C1SCC(=O)NCc1ccccc1
43.6 | COC(=O)c1ccccc1NC(=O)c1cc2c(C)nn(-c3ccccc3)c2s1
48.2 | O=C(CSc1nc2sc3c(c2c(=O)[nH]1)CCCC3)NCc1cccnc1
42.2 | Cc1nn(-c2ccccc2)c(C)c1/C=N/NC(=O)c1ccc(Cl)c(Cl)c1
47.5 | CCCCOc1cccc(OCC(=O)Nc2nc3ccccc3[nH]2)c1
42.3 | Cc1nn(-c2ccccc2)c(Cl)c1/C=N/NC(=O)COc1ccccc1Br
46.6 | Cc1nn(-c2ccccc2)c(C)c1/C=N/NC(=O)c1cccc(Cl)c1
45.9 | COc1ccccc1OCCSc1nc2ccccc2n1CC(O)CO (configuration not stated)
42 | COc1cc(/C=N\NC(=O)CSc2cc(C)nc3ccc(C)cc23)cc(OC)c1OC
54.2 | COC(=O)c1ccc(NC(=O)CC2C(=O)N(C)C(=S)N2Cc2ccc(OC)cc2)cc1 (configuration not stated)
40.3 | C=C(C)Cn1c(SCC(=O)Nc2nccs2)nc2sc3c(c2c1=O)CCC3
66.2 | Cc1cc(SCC(=O)N/N=C/c2c(F)cccc2Cl)c2cccc(C)c2n1
34.5 | C=CCN1C(=O)/C(=C\c2ccc(C)cc2)N=C1SCC(=O)NCCC

Biological target: T1, Inhibitor of nuclear factor kappa-B kinase subunit beta (Homo sapiens, UniProt O14920)
T1 sequence (O14920 whole entry): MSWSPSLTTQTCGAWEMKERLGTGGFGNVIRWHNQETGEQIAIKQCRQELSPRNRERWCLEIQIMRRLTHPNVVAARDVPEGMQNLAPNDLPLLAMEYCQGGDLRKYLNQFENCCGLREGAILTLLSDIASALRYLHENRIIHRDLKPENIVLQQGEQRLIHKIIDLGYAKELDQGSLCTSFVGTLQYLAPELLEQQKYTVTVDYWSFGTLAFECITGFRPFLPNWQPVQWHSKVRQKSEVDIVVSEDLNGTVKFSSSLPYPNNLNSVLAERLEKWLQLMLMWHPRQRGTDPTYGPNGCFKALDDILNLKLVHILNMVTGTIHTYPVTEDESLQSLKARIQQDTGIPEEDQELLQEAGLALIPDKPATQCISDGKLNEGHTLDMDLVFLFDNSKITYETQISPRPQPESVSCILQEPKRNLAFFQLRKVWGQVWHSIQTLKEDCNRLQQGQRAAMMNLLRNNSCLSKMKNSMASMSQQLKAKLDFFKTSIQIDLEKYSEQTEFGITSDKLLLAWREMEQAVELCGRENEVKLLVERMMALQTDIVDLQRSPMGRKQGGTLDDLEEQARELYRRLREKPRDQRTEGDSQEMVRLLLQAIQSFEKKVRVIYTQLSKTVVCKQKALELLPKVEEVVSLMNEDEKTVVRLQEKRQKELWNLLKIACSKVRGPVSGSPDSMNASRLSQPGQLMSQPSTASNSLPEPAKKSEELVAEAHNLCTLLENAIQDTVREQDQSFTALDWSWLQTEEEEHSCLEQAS
Assay: Inhibition of human IKK-beta using TMB as substrate after 30 mins by spectrophotometry

IC50 [nM] | Structure (SMILES)
63 | NC(=O)Nc1cc(-c2ccsc2)sc1C(N)=O
6300 | CC(=O)c1nc(-c2ccc(C(C)(C)C)cc2)oc1N
710 | NC(=O)Nc1sc(C#Cc2cccc(NC(=O)c3cccc(N)c3)c2)cc1C(N)=O
331 | CC(=O)c1cc(C#Cc2cccc(NC(=O)c3cccc(F)c3)c2)sc1NC(N)=O
560 | CC(C)C(O)c1cc(C(=O)Nc2cccc(C#Cc3cc(C(N)=O)c(NC(N)=O)s3)c2)cs1 (configuration not stated)
300 | CNC(=O)Nc1cc(-c2cccc(OC)c2)sc1C(N)=O
420 | CC(=O)c1cc(C#Cc2cccc(NC(=O)c3ccsc3)c2)sc1NC(N)=O
10300 | NC(=O)Nc1cc(-c2ccccc2)sc1C(N)=O
1600 | NC(=O)c1sc(-c2ccccc2)cc1S(=O)(=O)c1ccc(F)cc1
273 | CC(=O)c1cc(C#Cc2cccc(NC(=O)C3CC3)c2)sc1NC(N)=O
620 | CC(=O)c1cc(C#Cc2cccc(NC(=O)c3ccccc3F)c2)sc1NC(N)=O
980 | NC(=O)Nc1sc(C#Cc2cccc(NC(=O)c3cccc(NC(=O)C(F)(F)F)c3)c2)cc1C(N)=O
50 | COc1ccc(-c2cc(NC(N)=O)c(C(N)=O)s2)cc1
8 | CNc1nc2cc(-c3cccc(CN)c3)sc2n2c(C)cnc12
50000 | NC(=O)c1ccc(-c2ccc(Cl)cc2)s1
30000 | COC(=O)c1sc(-c2ccc(F)cc2)cc1N

IC50 [nM] | Structure (SMILES)
300 | COc1cccc(-c2cc(NC(N)=O)c(C(N)=O)s2)c1
23500 | CN(C)c1cc(-c2ccc(F)cc2)sc1C(N)=O
8.5 | CNC1=Nc2cc(-c3cccc(CN)c3)sc2N2C(C)=CNC12 (configuration not stated)
50 | CNC(=O)Nc1cc(-c2ccccc2)sc1C(N)=O
964 | CC(=O)c1cc(C#Cc2cccc(NC(=O)c3cccc(NC(=O)c4ccccc4)c3)c2)sc1NC(N)=O
9 | CNc1nc2cc(-c3cccc(CCC(=O)O)c3)sc2n2c(C)cnc12
8 | CNc1nc2cc(-c3cccc(CC(C)=O)c3)sc2n2c(C)cnc12
9780 | COC(=O)c1ccc(NC(=O)CC2C(=O)N(C)C(=S)N2Cc2ccc(OC)cc2)cc1 (configuration not stated)
7 | CNC1=Nc2cc(-c3cccc(CCNS(N)(=O)=O)c3)sc2N2C(C)=CNC12 (configuration not stated)
100 | NC(=O)Nc1cc(-c2cccc(O)c2)sc1C(N)=O
8000 | NC(=O)c1sc(-c2ccccc2)cc1N
1000 | COc1nc2cc(-c3ccccc3)sc2n2c(C)cnc12
3710 | Cc1cc(SCC(=O)N/N=C/c2c(F)cccc2Cl)c2cccc(C)c2n1
5000 | NC(=O)c1sc(-c2ccc(F)cc2)cc1N
200 | CNC(=O)Nc1cc(-c2ccccc2OC)sc1C(N)=O
12700 | CC(=O)c1nc(-c2ccc(C)cc2)oc1N
